The record followed here is ChEMBL document CHEMBL3045760, “Bioactive xanthones with effect on P-glycoprotein and prediction of intestinal absorption” (Med Chem Res, 2013).

Data set [1] deals with T1, ATP-dependent translocase ABCB1 (Homo sapiens, UniProt P08183). The data set is described as follows: Activation of P-glycoprotein in doxorubicin-resistant Homo sapiens (human) K562 cells overexpressing P-gp assessed as decrease in intracellular Rh123 accumulation at 10 to 20 uM after 1 hr by flow cytometric analysis. The data set is classed as cell-based. The note with it: k562, 1 h. On the technique in general: In flow cytometry, cells or beads pass a laser one at a time.
T1 sequence (P08183 whole entry): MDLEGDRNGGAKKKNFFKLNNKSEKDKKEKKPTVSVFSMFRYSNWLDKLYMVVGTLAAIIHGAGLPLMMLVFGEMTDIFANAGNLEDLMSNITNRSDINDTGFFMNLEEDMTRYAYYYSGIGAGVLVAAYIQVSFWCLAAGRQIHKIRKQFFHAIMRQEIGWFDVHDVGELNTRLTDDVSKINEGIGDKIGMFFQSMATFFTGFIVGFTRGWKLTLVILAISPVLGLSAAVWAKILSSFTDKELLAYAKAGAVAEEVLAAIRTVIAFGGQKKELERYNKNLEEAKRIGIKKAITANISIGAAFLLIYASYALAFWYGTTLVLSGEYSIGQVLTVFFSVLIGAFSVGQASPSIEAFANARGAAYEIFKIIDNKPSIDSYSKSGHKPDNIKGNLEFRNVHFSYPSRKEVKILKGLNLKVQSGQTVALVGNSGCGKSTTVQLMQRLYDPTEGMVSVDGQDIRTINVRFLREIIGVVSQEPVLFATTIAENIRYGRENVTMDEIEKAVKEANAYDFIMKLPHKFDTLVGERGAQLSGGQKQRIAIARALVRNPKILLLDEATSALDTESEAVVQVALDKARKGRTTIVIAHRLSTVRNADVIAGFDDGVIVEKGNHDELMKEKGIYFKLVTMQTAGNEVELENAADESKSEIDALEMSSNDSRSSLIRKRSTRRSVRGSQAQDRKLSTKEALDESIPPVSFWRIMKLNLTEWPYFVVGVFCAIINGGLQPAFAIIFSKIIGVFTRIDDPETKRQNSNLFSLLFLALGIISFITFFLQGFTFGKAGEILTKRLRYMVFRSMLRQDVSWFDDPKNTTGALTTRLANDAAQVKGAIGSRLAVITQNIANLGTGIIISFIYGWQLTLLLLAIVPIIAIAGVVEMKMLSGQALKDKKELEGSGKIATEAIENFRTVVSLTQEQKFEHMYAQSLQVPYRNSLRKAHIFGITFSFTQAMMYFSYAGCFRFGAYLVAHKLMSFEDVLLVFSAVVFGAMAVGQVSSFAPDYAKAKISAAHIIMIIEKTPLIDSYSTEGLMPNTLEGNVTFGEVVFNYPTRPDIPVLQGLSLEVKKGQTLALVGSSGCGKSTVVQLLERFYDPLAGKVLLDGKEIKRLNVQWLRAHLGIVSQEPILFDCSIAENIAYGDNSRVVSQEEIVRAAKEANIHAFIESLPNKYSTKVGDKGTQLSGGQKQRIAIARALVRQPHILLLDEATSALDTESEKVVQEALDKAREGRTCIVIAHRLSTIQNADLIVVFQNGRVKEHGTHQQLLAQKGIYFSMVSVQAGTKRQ

Data set [2] is described as follows: (§1) Drug recovery in Homo sapiens (human) Caco2 cells at 100 uM by HPLC-UV analysis. The format is ADME, cell-based, Caco-2. The note with it: Caco-2, read-out: Drug recovery.
Data set [3] can be described thus: Apparent permeability from apical to basolateral side of Homo sapiens (human) Caco2 cells at 100 uM by HPLC-UV analysis. The format is ADME, cell-based. The note with it: Caco-2. (In general: Passage across Caco-2 layers is used to estimate intestinal permeability.)
For data set [4], the target named is T1, ATP-dependent translocase ABCB1. The data set is described as follows: Inhibition of P-glycoprotein in doxorubicin-resistant Homo sapiens (human) K562 cells overexpressing P-gp assessed as increase in intracellular Rh123 accumulation at 10 to 20 uM after 1 hr by flow cytometric analysis. The data set is classed as cell-based. The note with it: k562, 1 h.

The species entered for another data set is Homo sapiens. Kind of data set: Non-competitive inhibition of Homo sapiens (human) P-glycoprotein ATPase activity at 200 uM after 40 min by luminescence analysis.
For a further data set, the system named is Caco-2. Described as §1. The note with it: caco-2, 100 µM. The format is ADME, cell-based.

Active and inactive are the calls of the source. No cut-off for these calls is given here.

What is called Papp A→B is the apparent permeability from the apical to the basolateral side of a cell layer.

As for `O=c1c2ccccc2oc2c(O)c(O)ccc12` [3,4-DIHYDROXYXANTHONE], in data set [1], the result was Active. Also, the recovery at 100 µM in data set [2] came out at 53.6%. In addition, the Papp A→B at 100 µM in data set [3] was 19.4 ×10⁻⁶ cm/s.

`CC1(C)CCc2cc3c(=O)c4ccccc4oc3c(O)c2O1`: the recovery at 100 µM in data set [2] stood at 29.4%. Moreover, the “inhibition (INH)” value in data set [4] was “Active”. The apical-to-basolateral permeability (Papp A→B) at 100 µM in data set [3] came out at 14.2 ×10⁻⁶ cm/s. For the same compound, the inhibition entry in the data set filed under Homo sapiens was “Active”.

With `COc1cc(C2Oc3ccc4c(=O)c5ccccc5oc4c3OC2CO)ccc1O` (stereo not given), the Drug recovery with Caco-2 came out at 164.7%. In data set [4], the “inhibition (INH)” value is on record as “Active”. In data set [3], the Papp A→B at 100 µM amounted to 14.4 ×10⁻⁶ cm/s. Further, the inhibition result in the data set filed under Homo sapiens is “Active”.

Consider `COc1ccc(CCN(C)CCCC(C#N)(c2ccc(OC)c(OC)c2)C(C)C)cc1OC` (stereo not given), for which the “inhibition (INH)” value in data set [4] is reported as “Active”.

`O=c1c2ccccc2oc2ccc(O)c(O)c12`: the outcome in data set [1] was Active. For the same compound, the recovery at 100 µM in data set [2] came to 40.7%. In data set [3], the Papp A→B at 100 µM amounted to 15.2 ×10⁻⁶ cm/s.
